From paper PMC11909088, “Synthesis, molecular docking and molecular dynamics simulations, drug-likeness studies, ADMET prediction and biological evaluation of novel pyrazole-carboxamides bearing sulfonamide moiety as potent carbonic anhydrase inhibitors” (Molecular Diversity, 2024)

Key:
hCA I = hCA I (Homo sapiens, UniProt P00915); assay: Esterase activity inhibition of hCA I purified from human erythrocytes (IC50, Ki); assay type: biochemical; conditions: for IC50: mean from three assays, spectrophotometric; for IC50 / Ki: NI = No Inhibition; for Inhibition Type hCA I / Ki: Lineweaver-Burk plot; for inhibition effect on hCA I (in words): esterase activity
Protocol: (§1) Esterase activities of purified hCA I and hCA II were determined according to the literature. Activity measurement has described in detail in our previous studies.
(§2) The method for determination of Ki values has described in detail in our previous studies. […] The data have linearized with Lineweaver–Burk plot in order to obtain Ki values.
(§3) IC50 and Ki values were expressed by averaging the results from triplicate experiments.
(§4) The enzymatic reaction, in a total volume of 3.0 mL, contained 1.4 mL of 0.05 M TRIS–SO4 buffer (pH 7.4), 1.0 mL of 3.0 mM 4-nitrophenylacetate, 0.5 mL H2O and 0.1 mL enzyme solution. A reference measurement was obtained by preparing the same cuvette without enzyme solution [46–49, 53].
(§5) Regression analysis graphs were drawn by plotting the percent enzyme activity versus inhibitor concentration and IC50 values were calculated.
(§6) Enzyme activity was also measured in the presence of the same substrate concentrations but in the absence of any inhibitor to determine the Vmax.

hCA II = hCA II (Homo sapiens, UniProt P00918); assay: Esterase activity inhibition of hCA II purified from human erythrocytes (IC50, Ki); assay type: biochemical; conditions: for Inhibition Type hCA II / Ki: Lineweaver-Burk plot; for Ki / IC50: NI = No Inhibition; for IC50: mean from three assays, spectrophotometric; for inhibition effect on hCA II (in words): esterase activity
Protocol: as §1, §2, §3, §4, §5, §6

Sequence of hCA I (P00915 whole entry): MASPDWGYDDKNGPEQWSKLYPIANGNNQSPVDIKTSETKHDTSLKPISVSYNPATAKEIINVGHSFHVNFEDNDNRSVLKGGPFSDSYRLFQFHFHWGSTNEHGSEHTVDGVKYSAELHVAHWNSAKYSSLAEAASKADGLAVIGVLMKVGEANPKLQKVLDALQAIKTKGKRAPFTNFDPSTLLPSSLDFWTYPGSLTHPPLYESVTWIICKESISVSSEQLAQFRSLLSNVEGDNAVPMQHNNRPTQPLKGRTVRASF

Structure (SMILES)	maximal decrease of hCA I activity (hCA I; at most)	IC50 (hCA I)	melting point	Inhibition Type hCA I (hCA I)	Ki (hCA I)	Inhibition Type hCA II (hCA II)	Ki (hCA II)	IC50 (hCA II)	stronger inhibitory effect than AAZ for hCA II (hCA II; compared with reference compound AAZ)	inhibition effect on hCA I (in words) (hCA I)	inhibition effect on hCA II (in words) (hCA II)
Cc1noc(NS(=O)(=O)c2ccc(NC(=O)c3nn(-c4ccccc4)c(-c4ccccc4)c3C(=O)c3ccccc3)cc2)c1C [Compound 6g, 4-benzoyl-N-(4-(N-(3,4-dimethylisoxazol-5-yl)sulfamoyl)phenyl)-1,5-diphenyl-1H-pyrazole-3-carboxamide]	≤ 50%	1.66 µM	165 to 167 °C	–	–	–	–	–	–	–	–
NS(=O)(=O)c1ccccc1NC(=O)c1nn(-c2ccccc2)c(-c2ccccc2)c1C(=O)c1ccccc1 [Compound 6c, 4-benzoyl-1,5-diphenyl-N-(2-sulfamoylphenyl)-1H-pyrazole-3-carboxamide]	–	6.2 µM	233 to 235 °C	Non competitive	3.37 µM	Non competitive	4.23 µM	6.41 µM	–	–	–
NS(=O)(=O)c1cccc(NC(=O)c2nn(-c3ccccc3)c(-c3ccccc3)c2C(=O)c2ccccc2)c1 [Compound 6b, 4-benzoyl-1,5-diphenyl-N-(3-sulfamoylphenyl)-1H-pyrazole-3-carboxamide]	–	0.463 µM	–	Non competitive	0.237 µM	Non competitive	0.03 µM	0.139 µM	approximately fivefold	–	–
N=C(N)NS(=O)(=O)c1ccc(NC(=O)c2nn(-c3ccccc3)c(-c3ccccc3)c2C(=O)c2ccccc2)cc1 [Compound 6i, 4-benzoyl-N-(4-(N-carbamimidoylsulfamoyl)phenyl)-1,5-diphenyl-1H-pyrazole-3-carboxamide]	–	–	280 to 282 °C	–	–	–	–	–	–	did not show any inhibition effect	did not show any inhibition effect
O=C(Nc1ccc(S(=O)(=O)Nc2ncccn2)cc1)c1nn(-c2ccccc2)c(-c2ccccc2)c1C(=O)c1ccccc1 [Compound 6e, 4-benzoyl-1,5-diphenyl-N-(4-(N-(pyrimidin-2-yl)sulfamoyl)phenyl)-1H-pyrazole-3-carboxamide]	–	–	244 to 246 °C	–	–	–	–	–	–	did not show any inhibition effect	did not show any inhibition effect
Cc1ccnc(NS(=O)(=O)c2ccc(NC(=O)c3nn(-c4ccccc4)c(-c4ccccc4)c3C(=O)c3ccccc3)cc2)n1 [Compound 6f, 4-benzoyl-N-(4-(N-(4-methylpyrimidin-2-yl)sulfamoyl)phenyl)-1,5-diphenyl-1H-pyrazole-3-carboxamide]	–	–	237 to 239 °C	–	–	–	–	–	–	did not show any inhibition effect	did not show any inhibition effect
O=C(Nc1ccc(S(=O)(=O)Nc2nccs2)cc1)c1nn(-c2ccccc2)c(-c2ccccc2)c1C(=O)c1ccccc1 [Compound 6h, 4-benzoyl-1,5-diphenyl-N-(4-(N-(thiazol-2-yl)sulfamoyl)phenyl)-1H-pyrazole-3-carboxamide]	–	–	252 to 254 °C	–	–	–	–	–	–	–	did not inhibit
O=C(Nc1ccc(S(=O)(=O)Nc2ccccn2)cc1)c1nn(-c2ccccc2)c(-c2ccccc2)c1C(=O)c1ccccc1 [Compound 6d, 4-benzoyl-1,5-diphenyl-N-(4-(N-(pyridin-2-yl)sulfamoyl)phenyl)-1H-pyrazole-3-carboxamide]	–	–	239 to 241 °C	–	–	–	–	–	–	did not show any inhibition effect	did not show any inhibition effect
